According to ChEMBL document CHEMBL1201862, “PubChem BioAssay data set” (2004):
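Dose response: 5 concentrations. Exposure: 48 h. Format: 96-well plates. Endpoint: linear interpolation; highest concentration if not reached. Here, GI50 denotes the concentration required for 50% inhibition of growth.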 The source made the active and inactive calls. Cut-off read from the data, not from the text of the source: active = GI50 up to about 1.1 µM and inactive = higher.

Tests used:
Experiment in all cases: NCI anticancer screen, dose series, 48 h
[1] = test system: HL-60
[2] = test system: OVCAR-3
[3] = test system: NCI-H522
[4] = test system: KM12
[5] = test system: HCT-15
[6] = test system: SN12C
[7] = test system: DU-145
[8] = test system: SK-MEL-2
[9] = test system: M14
[10] = test system: ACHN
[11] = test system: U-251
[12] = test system: CAKI-1
[13] = test system: T47D
[14] = test system: SR
[15] = test system: HT-29
[16] = test system: BT-549
[17] = test system: A549
[18] = test system: SK-MEL-28
[19] = test system: UACC-257
[20] = test system: MCF7
[21] = test system: Hs-578T
[22] = test system: PC-3
[23] = test system: 786-0
[24] = test system: HCT-116
[25] = test system: NCI-H226
[26] = test system: SNB-75
[27] = test system: OVCAR-8
[28] = test system: EKVX
[29] = test system: SF-268
[30] = test system: NCI-H460
[31] = test system: UACC-62
[32] = test system: OVCAR-5
[33] = test system: LOX IMVI
[34] = test system: SF-295
[35] = test system: SNB-19
[36] = test system: MDA-N
[37] = test system: IGROV-1
[38] = test system: OVCAR-4
[39] = test system: HOP-62
[40] = test system: SF-539
[41] = test system: NCI-H23
[42] = test system: K562
[43] = test system: UO-31
[44] = test system: SK-MEL-5
[45] = test system: HOP-92
[46] = test system: CCRF-CEM
[47] = test system: SW-620
[48] = test system: MDA-MB-231
[49] = test system: SK-OV-3
[50] = test system: A498
[51] = test system: MDA-MB-435
[52] = test system: HCC 2998
[53] = test system: RXF 393
[54] = test system: MOLT-4
[55] = test system: TK-10
[56] = test system: NCI/ADR-RES
[57] = test system: RPMI-8226
[58] = test system: Malme-3M
[59] = test system: COLO 205

`NCCC1([N+](=O)[O-])CCNCC1` was tested, and the GI50 [1] was > 100 µM (inactive), the GI50 [2] was > 100 µM (inactive) and the GI50 [3] was > 86.5 µM (inactive). For the same compound, the GI50 [4] was > 100 µM (inactive), the GI50 [5] was greater than 100 µM and the GI50 [6] was > 100 µM (inactive). For the same compound, the GI50 [7] was > 100 µM (inactive), the GI50 [8] was > 100 µM (inactive) and the GI50 [9] was > 100 µM (inactive). The GI50 [10] was > 100 µM (inactive), the GI50 [11] was > 100 µM (inactive) and the GI50 [12] was > 100 µM (inactive). The GI50 [13] was > 100 µM (inactive), the GI50 [14] was > 100 µM (inactive) and the GI50 [15] was > 100 µM (inactive). The GI50 [16] was > 100 µM (inactive), the GI50 [17] was > 100 µM (inactive) and the GI50 [18] was > 26.8 µM (inactive). For the same compound, the GI50 [19] was > 100 µM (inactive), the GI50 [20] was > 100 µM (inactive) and the GI50 [21] was > 100 µM (inactive). The GI50 [22] was > 100 µM (inactive), the GI50 [23] was > 100 µM (inactive) and the GI50 [24] was > 100 µM (inactive). The GI50 [25] was > 100 µM (inactive), the GI50 [26] was > 100 µM (inactive) and the GI50 [27] was > 100 µM (inactive). The GI50 [28] was > 100 µM (inactive), the GI50 [29] was > 100 µM (inactive) and the GI50 [30] was > 100 µM (inactive). For the same compound, the GI50 [31] was > 100 µM (inactive), the GI50 [32] was > 100 µM (inactive) and the GI50 [33] was > 100 µM (inactive). The GI50 [34] was > 100 µM (inactive), the GI50 [35] was > 100 µM (inactive) and the GI50 [36] was > 100 µM (inactive). The GI50 [37] was > 100 µM (inactive), the GI50 [38] was > 100 µM (inactive) and the GI50 [39] was > 100 µM (inactive). The GI50 [40] was > 100 µM (inactive), the GI50 [41] was > 100 µM (inactive) and the GI50 [42] was > 100 µM (inactive). For the same compound, the GI50 [43] was > 100 µM (inactive), the GI50 [44] was > 100 µM (inactive) and the GI50 [45] was > 100 µM (inactive). For the same compound, the GI50 [46] was > 100 µM (inactive), the GI50 [47] was > 100 µM (inactive) and the GI50 [48] was > 100 µM (inactive). The GI50 [49] was > 100 µM (inactive), the GI50 [50] was > 100 µM (inactive) and the GI50 [51] was > 100 µM (inactive). For the same compound, the GI50 [52] was > 100 µM (inactive), the GI50 [53] was > 100 µM (inactive) and the GI50 [54] was > 100 µM (inactive). The GI50 [55] was > 100 µM (inactive), the GI50 [56] was > 100 µM (inactive) and the GI50 [57] was > 100 µM (inactive). For the same compound, the GI50 [58] was > 100 µM (inactive) and the GI50 [59] was > 100 µM (inactive).
